The results in this text go back to ChEMBL document CHEMBL1201862, “PubChem BioAssay data set” (2004).

Some test systems named below: SF-295; MDA-MB-231; HCT-15; NCI-H522; M14; SK-OV-3; MDA-MB-435; UO-31; MOLT-4; NCI/ADR-RES; OVCAR-5; HL-60; SF-268; A498; IGROV-1; SK-MEL-5; HOP-92; RXF 393; NCI-H460; UACC-257.
What all share (assay): NCI tumour cell line growth inhibition, 48 h

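Tested at 5 concentrations; 48 h exposure; 96-well plates; endpoints linearly interpolated, else capped at highest concentration. The concentration for 50% growth inhibition is given as GI50.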 Activity calls are given as the source filed them. Rule as the data show it: active = GI50 up to about 1.1 µM and inactive = higher.

For `C(=N/Nc1ccccn1)/c1cccnc1`, the GI50 was > 100 µM (inactive) with SF-295; > 100 µM (inactive) with MDA-MB-231; more than 100 µM with HCT-15; > 100 µM (inactive) in the assay with NCI-H522; 62.7 µM (inactive) with M14; > 100 µM (inactive) in the assay on SK-OV-3. Besides, the GI50 in the assay on MDA-MB-435 is > 100 µM (inactive); with UO-31 it was > 100 µM (inactive); in the assay with MOLT-4, 76.2 µM (inactive); with NCI/ADR-RES, > 100 µM (inactive); with OVCAR-5, > 100 µM (inactive); in the assay with HL-60, > 100 µM (inactive). Also, the GI50 in the assay with SF-268, with A498, with IGROV-1, in the assay on SK-MEL-5, in the assay with HOP-92 and in the assay with RXF 393 was > 100 µM (inactive) each time. Also, the figures for the GI50 in the assay on NCI-H460 and in the assay with UACC-257 were > 100 µM (inactive) and 89.3 µM (inactive), respectively.

Regarding `C=CCNc1nc2c(s1)C(=O)c1ccccc1C2=O`, the GI50 is 14.8 µM (inactive) in the assay with SF-295; 10 µM (inactive) in the assay with MDA-MB-231; 8.51 µM in the assay on HCT-15; 6.41 µM (inactive) in the assay with NCI-H522; 5.12 µM (inactive) in the assay with M14; 17.9 µM (inactive) in the assay on SK-OV-3. Moreover, the GI50 in the assay with MDA-MB-435 is 1.91 µM (inactive); with UO-31, 13.3 µM (inactive); in the assay on MOLT-4 it was 2.26 µM (inactive); in the assay with NCI/ADR-RES it was 15.4 µM (inactive); in the assay on OVCAR-5, 21.7 µM (inactive); in the assay on HL-60, 1.61 µM (inactive). The GI50 with SF-268 was 12.4 µM (inactive); in the assay on A498, 19.5 µM (inactive); in the assay on IGROV-1, 8.73 µM (inactive); in the assay on SK-MEL-5, 1.7 µM (inactive); with HOP-92, 9.31 µM (inactive); in the assay on RXF 393, 18.6 µM (inactive). The GI50 with NCI-H460 is 12 µM (inactive); with UACC-257, 2.7 µM (inactive).

Turning to `COc1cc(C=O)cc(/C=N/N=C/c2ccccc2O)c1O`, the GI50 is 2.7 µM (inactive) in the assay on SF-295; 23.7 µM (inactive) with MDA-MB-231; 40.1 µM in the assay on HCT-15; 40.5 µM (inactive) in the assay on NCI-H522; 15.6 µM (inactive) in the assay with M14; 12.7 µM (inactive) in the assay on SK-OV-3. Moreover, the GI50 was 23.9 µM (inactive) with MDA-MB-435; 24.6 µM (inactive) in the assay with UO-31; 0.0182 µM (active) in the assay with MOLT-4; 36 µM (inactive) in the assay on NCI/ADR-RES; < 0.01 µM (active) in the assay with HL-60; 36.6 µM (inactive) with SF-268. Further, the GI50 with A498 is > 100 µM (inactive); with IGROV-1 it was 40.1 µM (inactive); in the assay with SK-MEL-5, 29.1 µM (inactive); with HOP-92 it was 3.22 µM (inactive); in the assay with RXF 393, 37.3 µM (inactive); in the assay with NCI-H460 it was 31.4 µM (inactive). The GI50 with UACC-257 was 32.9 µM (inactive).

Consider `O=[N+]([O-])c1ccc(C2=NOC(c3ccc(Cl)cc3)N2C23CC4CC(CC(C4)C2)C3)cc1` (stereo not drawn), for which the GI50 with SF-295 was > 100 µM (inactive); in the assay on MDA-MB-231 it was > 100 µM (inactive); in the assay with HCT-15, 97.1 µM; in the assay on NCI-H522, > 100 µM (inactive); in the assay with M14 it was > 100 µM (inactive); in the assay on SK-OV-3, > 100 µM (inactive). The GI50 in the assay with MDA-MB-435 is > 100 µM (inactive); with UO-31, > 100 µM (inactive); in the assay with MOLT-4 it was 33.3 µM (inactive); in the assay on NCI/ADR-RES, > 100 µM (inactive); with HL-60, 6.46 µM (inactive); with SF-268, > 100 µM (inactive). Besides, the GI50 in the assay on A498 was > 100 µM (inactive); with IGROV-1, > 100 µM (inactive); in the assay with SK-MEL-5 it was 53 µM (inactive); with HOP-92 it was 25.5 µM (inactive); in the assay with RXF 393, 1.86 µM (inactive); in the assay on NCI-H460 it was > 100 µM (inactive). The GI50 in the assay on UACC-257 was > 100 µM (inactive).

Turning to `CC(=O)OCC1OC(n2c(-c3ccccc3)c(C(C)=O)c(-c3ccc(Cl)cc3)c(C#N)c2=S)C(OC(C)=O)C(OC(C)=O)C1OC(C)=O` (stereo not drawn), the GI50 with SF-295 is > 100 µM (inactive); in the assay with MDA-MB-231, 70.3 µM (inactive); in the assay with HCT-15, 11.6 µM; with NCI-H522, > 100 µM (inactive); with M14, > 100 µM (inactive); in the assay with SK-OV-3, > 100 µM (inactive). The GI50 with MDA-MB-435 was > 100 µM (inactive); in the assay on MOLT-4, > 100 µM (inactive); with NCI/ADR-RES, > 100 µM (inactive); in the assay with OVCAR-5, > 100 µM (inactive); in the assay with HL-60, > 100 µM (inactive); in the assay on SF-268, 50.4 µM (inactive). For the same compound, the GI50 is > 100 µM (inactive) with A498; > 100 µM (inactive) with IGROV-1; 21.2 µM (inactive) in the assay with SK-MEL-5; 0.601 µM (active) in the assay on HOP-92; 65.5 µM (inactive) with RXF 393; 26.8 µM (inactive) with NCI-H460. Moreover, the GI50 in the assay with UACC-257 was > 100 µM (inactive).

On to `Cc1noc(NS(=O)(=O)c2ccc(NC(=O)c3ccc4nc5ccccc5c(Nc5ccc(S(=O)(=O)Nc6onc(C)c6C)cc5)c4c3)cc2)c1C`, for which the GI50 in the assay with SF-295 is > 100 µM (inactive); in the assay with MDA-MB-231 it was 22.1 µM (inactive); in the assay on HCT-15, 58.1 µM; in the assay on NCI-H522, 52.1 µM (inactive); in the assay with M14, > 100 µM (inactive); in the assay with SK-OV-3, > 100 µM (inactive). The GI50 in the assay on MDA-MB-435 was > 100 µM (inactive); in the assay on UO-31, > 100 µM (inactive); in the assay on MOLT-4, 80.5 µM (inactive); in the assay on NCI/ADR-RES, > 100 µM (inactive); in the assay on OVCAR-5, > 100 µM (inactive); in the assay on HL-60, 42.3 µM (inactive). The GI50 in the assay with SF-268 is > 100 µM (inactive); in the assay with A498 it was > 100 µM (inactive); with IGROV-1, > 100 µM (inactive); in the assay with SK-MEL-5, 49.4 µM (inactive); in the assay on HOP-92 it was > 100 µM (inactive); in the assay with RXF 393, 40.3 µM (inactive). Besides, the GI50 in the assay with NCI-H460 was 67.3 µM (inactive); in the assay with UACC-257, > 100 µM (inactive).

Regarding `CS[C@]12[C@@H]3C(=O)N(C)C(=O)[C@@H]3[C@](C)(C(=O)N1C)C(=O)N2c1ccccc1`, the GI50 in the assay with SF-295 was > 100 µM (inactive); in the assay with MDA-MB-231, > 100 µM (inactive); in the assay with HCT-15 it was more than 100 µM; in the assay with NCI-H522, > 100 µM (inactive); with M14 it was > 100 µM (inactive); in the assay with SK-OV-3, > 100 µM (inactive). Also, the GI50 in the assay with MDA-MB-435, in the assay with UO-31, in the assay on MOLT-4, with NCI/ADR-RES, in the assay with OVCAR-5 and with HL-60 was > 100 µM (inactive) in each case. In addition, the GI50 in the assay on SF-268, with A498, with IGROV-1, in the assay on SK-MEL-5, with HOP-92 and in the assay on RXF 393 was > 100 µM (inactive) in each case. For the same compound, in the assay with UACC-257, the GI50 is > 100 µM (inactive).

Turning to `CCOC(CCNCC(OCC)OCC)OCC`, the GI50 was > 10 µM (inactive) with SF-295; > 10 µM (inactive) in the assay with MDA-MB-231; more than 10 µM with HCT-15; > 10 µM (inactive) in the assay on NCI-H522; > 10 µM (inactive) in the assay with M14; > 10 µM (inactive) in the assay with SK-OV-3. Further, the GI50 in the assay with MDA-MB-435, in the assay with MOLT-4, with NCI/ADR-RES, with OVCAR-5, in the assay with HL-60 and with SF-268 was > 10 µM (inactive) each time. The GI50 in the assay on A498, in the assay with IGROV-1, in the assay on SK-MEL-5, with HOP-92, in the assay with RXF 393 and with NCI-H460 was > 10 µM (inactive) in each case. In the assay on UACC-257, the GI50 was > 10 µM (inactive).

With `O=C1C[C@@]23CCC4(CC2=CCC[C@H]3O1)OCCO4`, the GI50 with SF-295 is > 100 µM (inactive); in the assay with MDA-MB-231, > 100 µM (inactive); with HCT-15 it was more than 100 µM; in the assay on NCI-H522, > 100 µM (inactive); in the assay on M14, > 100 µM (inactive); in the assay on SK-OV-3, > 100 µM (inactive). The GI50 with MDA-MB-435, in the assay on MOLT-4, in the assay with NCI/ADR-RES, with OVCAR-5, in the assay on HL-60 and with SF-268 was > 100 µM (inactive) in each case. The GI50 in the assay on A498, in the assay on IGROV-1, with SK-MEL-5, in the assay on HOP-92, in the assay with RXF 393 and in the assay on NCI-H460 was > 100 µM (inactive) in each case. Further, the GI50 with UACC-257 is > 100 µM (inactive).

For `COc1ccc(/C=C2\N=C3NC(=O)C(N4CCCCC4)=C(N)N3C2=O)cc1`, the GI50 in the assay with SF-295 is 73.6 µM (inactive); in the assay on MDA-MB-231, > 100 µM (inactive); in the assay with HCT-15 it was more than 100 µM; with NCI-H522 it was > 100 µM (inactive); in the assay with M14, > 100 µM (inactive); in the assay with SK-OV-3, > 100 µM (inactive). Also, the GI50 in the assay on MDA-MB-435 is > 100 µM (inactive); in the assay with UO-31, > 100 µM (inactive); in the assay on MOLT-4, > 100 µM (inactive); in the assay on NCI/ADR-RES it was > 100 µM (inactive); in the assay with OVCAR-5 it was > 100 µM (inactive); in the assay on HL-60 it was 25.9 µM (inactive). Further, the GI50 with SF-268, with A498, in the assay with IGROV-1, with SK-MEL-5, in the assay with HOP-92 and with RXF 393 was > 100 µM (inactive) each time. For the same compound, in the assay with UACC-257, the GI50 was > 100 µM (inactive).
